System: NS3 protease
Assay: HCV NS3 protease inhibition (recombinant NS3 protease radiometric assays)
Assay type: biochemical, hepatitis C virus
Settings: qualitative statement
Method: The substrate used for the HCV NS3 protease radiometric assay, DDIVPC-SMSYTW, is cleaved between the cysteine and the serine residues by the enzyme. The sequence DDIVPC-SMSYTW corresponds to the NS5A/NS5B natural cleavage site in which the cysteine residue in P2 has been substituted for a proline. The peptide substrate DDIVPC-SMSYTW and the tracer biotin-DDIVPC-SMS[^125I-Y]TW were incubated with the recombinant NS3 protease in the absence or in the presence of inhibitors. The separation of substrate from products was performed by adding avidin-coated agarose beads to the assay mixture followed by filtration. The amount of SMS [^125I-Y]TW product found in the filtrate (with or without inhibitor) allowed for the calculation of the percentage of substrate conversion and of the percentage of inhibition.
The assay was performed in a 96-well polypropylene plate. Each well contained: • 20 µL substrate/tracer in assay buffer; • 10 µL ± inhibitor in 20% DMSO/assay buffer; • 10 µL NS3 protease 1b. […]
The filtrates were counted on a Packard® TopCount instrument using a ^125I-liquid protocol for 1 minute. The %inhibition was calculated with the following equation: 100- [(countsinh -countsblank ) / (countsctl -countsblank ) x 100] […]
The value of IC50 was calculated in the same manner as in Example 19.

Ac-DDIVPC-OH [Ac-D-D-I-V-P-C-OH]
inhibition of the NS3 protease: inhibitory

Reference: patent publication EP1003775B1, “HEPATITIS C INHIBITOR PEPTIDES” (BOEHRINGER INGELHEIM (CANADA) LTD., priority 1997, dated 2005)
